Results on 45 substances are retold here after patent publication US11840686B2, “Modulation of prekallikrein (PKK) expression” (Ionis Pharmaceuticals, Inc., priority 2013, dated 2023).

For the series, the system named is human PKK mRNA. The series can be described thus: Antisense inhibition of human PKK mRNA in HepaRG cells, 1,000 nM, MOE/deoxy/cEt oligonucleotides (Example 3). In kind it is cell-based. Put shortly:
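Readout is percent PKK mRNA reduction against untreated controls, by real-time PCR (RTS3454) adjusted for total RNA via RIBOGREEN. Oligonucleotides, phosphorothioate gapmers of 16 nucleosides with cEt, MOE and deoxy sugars, were delivered at 1,000 nM by electroporation to 20,000 HepaRG cells/well for roughly 24 h.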

Where [1] appears, read: Table 21 experiment, HepaRG cells, electroporation with 1,000 nM antisense oligonucleotide, approx. 24 hours, PKK mRNA by RT-PCR (RTS3454), relative to untreated control cells.
[2] abbreviates: Table 28, HepaRG cells, 1,000 nM antisense oligonucleotide, human PKK mRNA.
The mark [3] stands for this setting: Table 30, human PKK mRNA, HepaRG cells, 1,000 nM antisense oligonucleotide.
[4] abbreviates: HepaRG cells, 1,000 nM antisense oligonucleotide, Table 29.
The mark [5] stands for this setting: Table 27, HepaRG cells, 1,000 nM antisense oligonucleotide, human PKK mRNA.
The mark [6] stands for this setting: HepaRG cells, electroporation with 1,000 nM antisense oligonucleotide, approx. 24 hours, PKK mRNA by RT-PCR (RTS3454), relative to untreated control cells, Table 25 experiment.
Where [7] appears, read: Table 19, HepaRG cells, electroporation with 1,000 nM antisense oligonucleotide, approximately 24 hours, PKK mRNA by RT-PCR (RTS3454), relative to untreated control cells.
[8] abbreviates: HepaRG cells, electroporation with 1,000 nM antisense oligonucleotide, approximately 24 hours, primer probe set RTS3454, relative to untreated control cells, experiment of Table 23.
Setting [9] is: HepaRG cells, electroporation with 1,000 nM antisense oligonucleotide, approximately 24 hours, primer probe set RTS3454, relative to untreated control cells, experiment of Table 24.
Setting [10] is: PKK mRNA, HepaRG cells, 1,000 nM antisense oligonucleotide, Table 31.
[11] abbreviates: Table 22 experiment, HepaRG cells, electroporation with 1,000 nM antisense oligonucleotide, approx. 24 hours, PKK mRNA by RT-PCR (RTS3454), relative to untreated control cells.
Setting [12] is: HepaRG cells, electroporation with 1,000 nM antisense oligonucleotide, approx. 24 hours, PKK mRNA by RT-PCR (RTS3454), relative to untreated control cells, Table 26 experiment.

Strand notation (5' to 3'): a small letter for the sugar, then the base; units joined by * are phosphorothioate-linked, units joined directly phosphodiester-linked; [ ] holds rarer units or linkages, { } end groups; capitals alone tell only the bases. e = 2'-O-(2-methoxyethyl) (MOE); k = constrained ethyl (cEt); [5mC] = 5-methylcytosine; d = 2'-deoxy (DNA)

For the substance “547788 (antisense eT*eA*kA*dG*dT*dT*dG*d[5mC]*dT*dT*dG*d[5mC]*dT*kT*kG*eA) [compound 547788]”, the % inhibition (commonly the relative decrease from the control value, in per cent) under setting [1] is given as 49%. Turning to “548523 (antisense eG*eG*kT*dA*dA*dA*dT*d[5mC]*d[5mC]*dA*dT*d[5mC]*d[5mC]*k[5mC]*k[5mC]*eT) [compound 548523]”, the “% inhibition” value under setting [2] is on record as 44%. Take “548436 (antisense eA*eT*kA*dT*d[5mC]*dA*d[5mC]*dT*dG*dT*dA*d[5mC]*d[5mC]*kT*kG*eT) [compound 548436]”: the “% inhibition” value under setting [3] was found to be 8%. As to “548576 (eT*e[5mC]*kA*dT*dG*dT*dG*dG*d[5mC]*dA*dA*d[5mC]*d[5mC]*kT*kG*eT; antisense) [compound 548576]”, under setting [4], the “% inhibition” value amounted to 41%. On to “548307 (eT*eT*k[5mC]*dT*dG*d[5mC]*dA*dA*d[5mC]*dT*dG*dA*dG*k[5mC]*k[5mC]*eT; antisense) [compound 548307]”, for which the “% inhibition” value under setting [5] is listed as 6%. With “548206 (eG*eG*kT*d[5mC]*dA*dA*dT*d[5mC]*dT*dG*dA*d[5mC]*dT*kA*kG*eT; antisense) [compound 548206]”, the “% inhibition” value under setting [6] is listed as 45%. For the substance “547800 (eA*e[5mC]*kA*dT*dG*dG*dA*dA*dG*d[5mC]*dT*dA*d[5mC]*kA*kT*e[5mC]; antisense) [compound 547800]”, the “% inhibition” value under setting [1] is given as 20%. In the case of “548552 (antisense eT*eG*kG*dA*dG*dG*dA*dG*dT*dA*dG*dG*dG*kA*kA*eT) [compound 548552]”, the “% inhibition” value under setting [4] was 10%. Take “548138 (e[5mC]*e[5mC]*k[5mC]*d[5mC]*dA*dG*dG*d[5mC]*dT*d[5mC]*dA*dG*dA*kA*kT*eT; antisense) [compound 548138]”: the “% inhibition” value under setting [7] was 52%. With “547996 (antisense eT*eG*kT*dG*dT*d[5mC]*d[5mC]*d[5mC]*dA*dT*dA*d[5mC]*dG*k[5mC]*kA*eA) [compound 547996]”, the “% inhibition” value under setting [8] is 65%.

Regarding “547932 (e[5mC]*eG*kA*dT*dT*dT*dT*d[5mC]*d[5mC]*dA*dT*dA*d[5mC]*kA*kT*eT; antisense) [compound 547932]”, the “% inhibition” value under setting [8] turned out to be 33%. For “548463 (eT*e[5mC]*kA*d[5mC]*dT*dG*dT*dA*d[5mC]*d[5mC]*dT*dA*dT*kA*kT*e[5mC]; antisense) [compound 548463]”, the “% inhibition” value under setting [2] is given as 0%.

As for “548319 (e[5mC]*e[5mC]*kT*d[5mC]*dA*dT*d[5mC]*dT*d[5mC]*dA*dG*dT*dA*kT*kG*eA; antisense) [compound 548319]”, the “% inhibition” value under setting [5] was determined as 26%. For “548542 (antisense eG*e[5mC]*kG*d[5mC]*d[5mC]*dA*dT*d[5mC]*d[5mC]*dT*dT*d[5mC]*dA*kA*kT*e[5mC]) [compound 548542]”, the “% inhibition” value under setting [4] was found to be 7%.

Take “548068 (e[5mC]*eA*kA*d[5mC]*dA*dG*dT*dT*dG*dG*dT*dA*dT*kA*kA*eA; antisense) [compound 548068]”: under setting [9], the “% inhibition” value was found to be 0%. As for “548382 (eG*eA*kG*d[5mC]*dA*dA*dA*dT*dA*d[5mC]*dA*dG*dT*k[5mC]*k[5mC]*eA; antisense) [compound 548382]”, the “% inhibition” value under setting [3] is reported as 19%.

Take “548662 (antisense eT*eG*k[5mC]*dT*dT*dA*dA*dA*dA*dG*dT*d[5mC]*dT*k[5mC]*k[5mC]*e[5mC]) [compound 548662]”: under setting [10], the “% inhibition” value stood at 5%.

“548489 (antisense eT*eT*k[5mC]*d[5mC]*d[5mC]*d[5mC]*dA*dG*dA*dG*dG*dT*dG*kA*kT*eA) [compound 548489]”: the “% inhibition” value under setting [2] is given as 16%. For “548611 (antisense eG*e[5mC]*kG*dG*dG*dA*dT*d[5mC]*dG*dG*dT*dG*dG*kT*kG*eG) [compound 548611]”, the “% inhibition” value under setting [4] is 7%.

Consider “547852 (antisense eA*eT*kA*dA*dA*dT*dG*dT*d[5mC]*dT*d[5mC]*dG*dA*kT*kG*eG) [compound 547852]”, for which the “% inhibition” value reads like this: (Table 20, HepaRG cells, electroporation with 1,000 nM antisense oligonucleotide, approximately 24 hours, PKK mRNA by RT-PCR (RTS3454), relative to untreated control cells) 67%; under setting [11], 66%. For “547793 (antisense eA*eT*k[5mC]*d[5mC]*dA*d[5mC]*dA*dG*dG*dA*dA*dA*d[5mC]*kT*kG*eT) [compound 547793]”, under setting [1], the “% inhibition” value was 16%.

With “547834 (eA*eA*kA*d[5mC]*dT*dG*d[5mC]*dA*d[5mC]*d[5mC]*dT*dG*dT*kT*k[5mC]*eG; antisense) [compound 547834]”, the “% inhibition” value under setting [1] came out at 63%.

Turning to “548309 (eA*eG*kA*d[5mC]*dA*dG*dT*dT*dG*dG*dT*dG*dG*kT*kT*eT; antisense) [compound 548309]”, the “% inhibition” value under setting [5] was determined as 41%. With “547799 (eG*eA*kA*dG*d[5mC]*dT*dA*d[5mC]*dA*dT*d[5mC]*d[5mC]*d[5mC]*k[5mC]*kA*e[5mC]; antisense) [compound 547799]”, under setting [1], the “% inhibition” value is on record as 41%. As to “548186 (e[5mC]*eA*kA*d[5mC]*dA*d[5mC]*dA*d[5mC]*dA*dG*dT*d[5mC]*dA*kT*kG*eG; antisense) [compound 548186]”, the “% inhibition” value under setting [6] turned out to be 0%. As for “548429 (antisense eT*eA*kT*dA*dA*d[5mC]*dT*dA*dT*dA*dA*d[5mC]*dA*kG*kT*eA) [compound 548429]”, under setting [3], the “% inhibition” value stood at 0%.

For the substance “548303 (eG*eG*kG*d[5mC]*d[5mC]*d[5mC]*d[5mC]*d[5mC]*dA*dT*dG*dT*d[5mC]*k[5mC]*kA*eT; antisense) [compound 548303]”, the “% inhibition” value under setting [12] worked out at 0%. Turning to “548598 (eG*e[5mC]*kG*d[5mC]*d[5mC]*dA*dT*d[5mC]*dT*dG*d[5mC]*d[5mC]*d[5mC]*kT*kG*eT; antisense) [compound 548598]”, the “% inhibition” value under setting [4] was 50%. On to “547888 (eT*e[5mC]*k[5mC]*dG*dG*dT*dA*d[5mC]*dT*d[5mC]*dT*dG*d[5mC]*k[5mC]*kT*eT; antisense) [compound 547888]”, for which the “% inhibition” value under setting [11] came out at 99%. Consider “548244 (e[5mC]*eA*kT*dG*d[5mC]*dA*dT*dA*d[5mC]*dT*d[5mC]*dG*d[5mC]*k[5mC]*kT*eT; antisense) [compound 548244]”, for which, under setting [12], the “% inhibition” value was 51%. For “547944 (eA*e[5mC]*kT*dT*dG*dG*dT*dG*dT*dG*d[5mC]*d[5mC]*dA*k[5mC]*kT*eT; antisense) [compound 547944]”, the “% inhibition” value under setting [8] turned out to be 54%. Consider “548572 (eG*e[5mC]*kA*dT*dT*dA*d[5mC]*dT*d[5mC]*dA*dG*d[5mC]*dA*kT*kG*eT; antisense) [compound 548572]”, for which, under setting [4], the “% inhibition” value was 63%. As for “547817 (eT*eG*kA*dA*d[5mC]*dT*dT*dG*d[5mC]*dT*dG*dG*dA*kA*kG*eA; antisense) [compound 547817]”, under setting [1], the “% inhibition” value came out at 18%. “548388 (eA*eA*kG*dA*dG*dG*dA*dT*dG*dT*d[5mC]*dA*dG*kG*k[5mC]*eT; antisense) [compound 548388]”: the “% inhibition” value under setting [3] amounted to 4%. Take “548094 (antisense eG*eT*kT*dT*dG*d[5mC]*dA*dA*dA*d[5mC]*dT*dA*dA*kG*kG*eG) [compound 548094]”: the “% inhibition” value under setting [7] came out at 74%.

As for “548657 (antisense eA*eG*k[5mC]*dA*dG*dG*dG*dT*dA*dT*d[5mC]*dT*dT*k[5mC]*kA*e[5mC]) [compound 548657]”, under setting [10], the “% inhibition” value is 26%. On to “548030 (e[5mC]*eT*kG*dG*dT*dG*dT*d[5mC]*d[5mC]*dT*dA*dT*dG*kA*kG*eT; antisense) [compound 548030]”, for which the “% inhibition” value under setting [9] worked out at 52%. Take “548200 (e[5mC]*eT*kA*dA*dT*dG*dT*dG*dG*d[5mC]*dA*d[5mC]*dT*kG*k[5mC]*eA; antisense) [compound 548200]”: the “% inhibition” value under setting [6] stood at 19%. Regarding “547753 (eA*eT*kG*dA*dA*d[5mC]*dG*dG*dT*d[5mC]*dT*dT*d[5mC]*kA*kA*eG; antisense) [compound 547753]”, the “% inhibition” value under setting [1] is on record as 3%. As for “548526 (antisense e[5mC]*eT*kA*dA*dG*d[5mC]*dT*dG*dT*dG*dT*d[5mC]*dT*k[5mC]*kA*eT) [compound 548526]”, the “% inhibition” value under setting [2] is recorded as 26%.

Consider “548689 (DNA e[5mC]*e[5mC]*kA*dG*dG*dT*dG*d[5mC]*dA*dG*d[5mC]*dA*d[5mC]*kG*kG*eA) [compound 548689]”, for which, under setting [10], the “% inhibition” value worked out at 12%. Regarding “548310 (eG*eA*kG*dG*dA*dG*dT*dT*dG*dG*dT*dT*dT*kA*kG*eT; antisense) [compound 548310]”, the “% inhibition” value under setting [5] is 0%. For the substance “548187 (e[5mC]*eA*kT*d[5mC]*d[5mC]*dT*dA*dT*d[5mC]*d[5mC]*dG*dT*dG*kT*kT*e[5mC]; antisense) [compound 548187]”, the “% inhibition” value under setting [6] was 33%.

For the substance “548018 (e[5mC]*e[5mC]*kA*dA*dG*dA*dA*dG*dA*dG*dT*dT*dT*kG*kT*eT; antisense) [compound 548018]”, the “% inhibition” value under setting [9] worked out at 22%. Take “548345 (antisense e[5mC]*eT*kA*dA*d[5mC]*dT*d[5mC]*d[5mC]*dA*dT*d[5mC]*dA*d[5mC]*kT*kG*e[5mC]) [compound 548345]”: the “% inhibition” value under setting [5] was 55%.
